Assay results taken from patent US8017633B2, “Roflumilast for the treatment of diabetes mellitus” (Nycomed GmbH, priority 2005, dated 2011).

What was measured:
[1] = test system: C57BLKS db/db mice; test: 10 days study: fasting blood glucose and oral glucose tolerance in db/db mice; type: in vivo, mouse; conditions: for Blood glucose (15 min after glucose application) / Blood glucose (before glucose application): fasted 24 h; for Blood glucose (15 min after glucose application): 15 min after oral 1 g/kg glucose; for Blood glucose (before glucose application): 1 h after dose
Description: (§1) Female C57BLKS db/db mice obtained from M&B A/S (8680 Ry, Denmark) were used in the studies at 10 to 11 weeks of age. Mice were housed 10 per cage and allowed free access to water and standard laboratory diet for rodents (chow 3433, Provimi Kliba SA, 4303 Kaiseraugst, Switzerland).
Mice were allowed to acclimate to the local animal facilities for 1 week and retro-orbital blood samples were obtained 3 to 7 days prior to the start of the study.
(§2) Mice were treated with vehicle, Roflumilast or Roflumilast-N-Oxide, respectively once daily in the morning. Roflumilast or Roflumilast-N-Oxide was suspended in 4% methocel and applied via oral gavage using oral feeding & dosing needles (outer diameter: 1.5 mm, TSE GmbH, 61350 Bad Homburg, Germany). A volume of 10 ml/kg body weight was administered for each dose.
10 days studies: Mice were treated with vehicle, Roflumilast or Roflumilast-N-Oxide once daily in the morning. On day 9, mice were fasted for 24 hours by removing standard diet for laboratory animals 1 hour after drug application. On day 10, one hour after administration of vehicle, Roflumilast or Roflumilast-N-Oxide glucose tolerance was assessed by oral application of 1 g/kg/10 ml glucose. Blood was sampled before and 15 minutes after glucose application and levels of glucose (accu-chek, Roche Diagnostics GmbH, 68298 Mannheim, Germany) were measured.

[2] = test system: C57BLKS db/db mice; test: Daily food intake of db/db mice during once-daily oral treatment; type: in vivo, mouse
Description: as §1, §2
The daily intake of food (chow 3433) and water was measured per animal (total daily intake of food divided by the number of animals) before and during the treatment with Roflumilast or Roflumilast-N-Oxide.

[3] = Rof-N-Oxide 1 mg/kg oral once daily 10 days
[4] = Rof-N-Oxide 3 mg/kg oral once daily 10 days
[5] = Rof-N-Oxide 10 mg/kg oral once daily 10 days
[6] = Rof-N-Oxide 30 mg/kg oral once daily 10 days

In the case of O=C(Nc1c(Cl)c[n+]([O-])cc1Cl)c1ccc(OC(F)F)c(OCC2CC2)c1 [Rof-N-Oxide, 3-cyclopropylmethoxy-4-difluoromethoxy-N-(3,5-dichloro-1-oxido-pyridin-4-yl)benzamide], the “Blood glucose (15 min after glucose application)” value [1, 3] is reported as 595 mg/dL, the “Blood glucose (before glucose application)” value [1, 3] is reported as 220 mg/dL and the “Blood glucose (15 min after glucose application)” value [1, 4] is reported as 467 mg/dL. For the same compound, the “Blood glucose (before glucose application)” value [1, 4] was 174 mg/dL, the “Blood glucose (15 min after glucose application)” value [1, 5] was 423 mg/dL and the “Blood glucose (before glucose application)” value [1, 5] was 139 mg/dL. For the same compound, the “Blood glucose (15 min after glucose application)” value [1, 6] was 326 mg/dL, the “Blood glucose (before glucose application)” value [1, 6] was 146 mg/dL and the “Effect on fasting blood glucose levels (summary in words)” value ([1]; db/db mice) was “reduce”. The “Effect on postprandial blood glucose levels (summary in words)” value ([1]; db/db mice) was “reduce”, the “Daily food intake before the first application” value ([2]; 1 mg/kg group, Day −1, before first application) was 6.4 g per mouse and the “Daily food intake before the first application” value ([2]; 1 mg/kg group, Day −2, before first application) was 6.4 g per mouse. For the same compound, the “Daily food intake before the first application” value ([2]; 1 mg/kg group, Day −3, before first application) was 6.4 g per mouse, the “Daily food intake before the first application” value ([2]; 1 mg/kg group, Day −4, before first application) was 5.9 g per mouse and the “Daily food intake before the first application” value ([2]; 1 mg/kg group, Day −5, before first application) was 6.0 g per mouse. The “Daily food intake on the days of application” value (“Daily food intake on the days” for short) ([2]; 1 mg/kg oral once daily, Day 1) was 5.4 g per mouse, the “Daily food intake on the days” value ([2]; 1 mg/kg oral once daily, Day 2) was 5.4 g per mouse and the “Daily food intake on the days” value ([2]; 1 mg/kg oral once daily, Day 3) was 5.8 g per mouse. The “Daily food intake on the days” value ([2]; 1 mg/kg oral once daily, Day 4) was 5.5 g per mouse, the “Daily food intake on the days” value ([2]; 1 mg/kg oral once daily, Day 5) was 5.6 g per mouse and the “Daily food intake on the days” value ([2]; 1 mg/kg oral once daily, Day 6) was 5.8 g per mouse. For the same compound, the “Daily food intake on the days” value ([2]; 1 mg/kg oral once daily, Day 7) was 5.4 g per mouse, the “Daily food intake on the days” value ([2]; 1 mg/kg oral once daily, Day 8) was 5.5 g per mouse and the “Daily food intake before the first application” value ([2]; 3 mg/kg group, Day −1, before first application) was 6.1 g per mouse. The “Daily food intake before the first application” value ([2]; 3 mg/kg group, Day −2, before first application) was 6.1 g per mouse, the “Daily food intake before the first application” value ([2]; 3 mg/kg group, Day −3, before first application) was 6.4 g per mouse and the “Daily food intake before the first application” value ([2]; 3 mg/kg group, Day −4, before first application) was 6.4 g per mouse. The “Daily food intake before the first application” value ([2]; 3 mg/kg group, Day −5, before first application) was 5.5 g per mouse, the “Daily food intake on the days” value ([2]; 3 mg/kg oral once daily, Day 1) was 4.9 g per mouse and the “Daily food intake on the days” value ([2]; 3 mg/kg oral once daily, Day 2) was 4.9 g per mouse. For the same compound, the “Daily food intake on the days” value ([2]; 3 mg/kg oral once daily, Day 3) was 4.5 g per mouse, the “Daily food intake on the days” value ([2]; 3 mg/kg oral once daily, Day 4) was 4.5 g per mouse and the “Daily food intake on the days” value ([2]; 3 mg/kg oral once daily, Day 5) was 4.6 g per mouse. The “Daily food intake on the days” value ([2]; 3 mg/kg oral once daily, Day 6) was 4.9 g per mouse, the “Daily food intake on the days” value ([2]; 3 mg/kg oral once daily, Day 7) was 4.3 g per mouse and the “Daily food intake on the days” value ([2]; 3 mg/kg oral once daily, Day 8) was 4.2 g per mouse. For the same compound, the “Daily food intake before the first application” value ([2]; 10 mg/kg group, Day −1, before first application) was 6.5 g per mouse, the “Daily food intake before the first application” value ([2]; 10 mg/kg group, Day −2, before first application) was 6.4 g per mouse and the “Daily food intake before the first application” value ([2]; 10 mg/kg group, Day −3, before first application) was 6.4 g per mouse. The “Daily food intake before the first application” value ([2]; 10 mg/kg group, Day −4, before first application) was 6.2 g per mouse, the “Daily food intake before the first application” value ([2]; 10 mg/kg group, Day −5, before first application) was 6.0 g per mouse and the “Daily food intake on the days” value ([2]; 10 mg/kg oral once daily, Day 1) was 2.9 g per mouse. The “Daily food intake on the days” value ([2]; 10 mg/kg oral once daily, Day 2) was 3.3 g per mouse, the “Daily food intake on the days” value ([2]; 10 mg/kg oral once daily, Day 3) was 3.5 g per mouse and the “Daily food intake on the days” value ([2]; 10 mg/kg oral once daily, Day 4) was 2.9 g per mouse. For the same compound, the “Daily food intake on the days” value ([2]; 10 mg/kg oral once daily, Day 5) was 3.0 g per mouse, the “Daily food intake on the days” value ([2]; 10 mg/kg oral once daily, Day 6) was 3.1 g per mouse and the “Daily food intake on the days” value ([2]; 10 mg/kg oral once daily, Day 7) was 2.6 g per mouse. For the same compound, the “Daily food intake on the days” value ([2]; 10 mg/kg oral once daily, Day 8) was 3.8 g per mouse, the “Daily food intake before the first application” value ([2]; 30 mg/kg group, Day −1, before first application) was 6.3 g per mouse and the “Daily food intake before the first application” value ([2]; 30 mg/kg group, Day −2, before first application) was 6.2 g per mouse. For the same compound, the “Daily food intake before the first application” value ([2]; 30 mg/kg group, Day −3, before first application) was 6.5 g per mouse, the “Daily food intake before the first application” value ([2]; 30 mg/kg group, Day −4, before first application) was 6.4 g per mouse and the “Daily food intake before the first application” value ([2]; 30 mg/kg group, Day −5, before first application) was 5.8 g per mouse. The “Daily food intake on the days” value ([2]; 30 mg/kg oral once daily, Day 1) was 1.4 g per mouse and the “Daily food intake on the days” value ([2]; 30 mg/kg oral once daily, Day 2) was 0.9 g per mouse.
